Reference: PubChem BioAssay (NCI)
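A five-concentration, 48-hour dose response in 96-well plates underlies each endpoint, interpolated linearly between surrounding concentrations. GI50: concentration for 50% inhibition of growth. TGI is the concentration that stops growth completely.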

The molecules below were run on HOP-92 NSCLC (assay: DTP human tumour cell line panel, 48 h).

| Compound | TGI [µM] | GI50 [µM] |
| --- | --- | --- |
| CC1CCCCNC1=S (configuration not stated) | > 10 | – |
| CCOC(=O)c1ccc(N[C@@H]2c3cc4c(cc3C(c3cc(OC)c(O)c(OC)c3)[C@H]3C(=O)OCC32)OCO4)cc1O (some centres not stated) | 7.38 | – |
| CCC(C)NC1=NCC(C)S1 (configuration not stated) | > 100 | – |
| Clc1ccc(C[P+](c2ccccc2)(c2ccccc2)c2ccccc2)c(Cl)c1 | 5.76 | – |
| COc1ccccc1CNCCCN1C(=O)c2ccc3c4c(ccc(c24)C1=O)C(=O)N(CCCNCCNCCCN)C3=O | 38.8 | 6.7 |
| NNC(=O)c1c(SCc2ccccc2)nc2c3ccccc3ccn12 | 68.5 | – |
| COc1cc2oc(-c3ccc(O)cc3)c(OC)c(=O)c2c(O)c1OC | > 100 | 43.9 |
| C[C@@H]1Nc2cc(NC(=O)OCCF)nc(N)c2N=C1c1ccccc1 | > 100 | – |

These molecules were tested on SF-539 CNS (assay: DTP human tumour cell line panel, 48 h).

| Compound | TGI [µM] | GI50 [µM] |
| --- | --- | --- |
| COCCCNc1nc(N)c(C#N)c(C#N)c1C#N | > 10 | – |
| CC1CCCCNC1=S (configuration not stated) | > 10 | – |
| CCOC(=O)c1ccc(N[C@@H]2c3cc4c(cc3C(c3cc(OC)c(O)c(OC)c3)[C@H]3C(=O)OCC32)OCO4)cc1O (some centres not stated) | 2.69 | – |
| CC1CC2=C(S(=O)(=O)c3ccccc3)CC(S(=O)(=O)c3ccccc3)(S(=O)(=O)c3ccccc3)CC21 (configuration not stated) | > 100 | – |
| CCC(C)NC1=NCC(C)S1 (configuration not stated) | > 100 | – |
| Clc1ccc(C[P+](c2ccccc2)(c2ccccc2)c2ccccc2)c(Cl)c1 | 15.8 | – |
| COc1ccccc1CNCCCN1C(=O)c2ccc3c4c(ccc(c24)C1=O)C(=O)N(CCCNCCNCCCN)C3=O | 9.58 | 2.88 |
| NNC(=O)c1c(SCc2ccccc2)nc2c3ccccc3ccn12 | > 100 | – |
| COc1cc2oc(-c3ccc(O)cc3)c(OC)c(=O)c2c(O)c1OC | > 100 | 44.1 |
| C[C@@H]1Nc2cc(NC(=O)OCCF)nc(N)c2N=C1c1ccccc1 | < 0.0001 | – |

Each molecule was assayed on SNB-19 CNS (assay: DTP human tumour cell line panel, 48 h).

| Compound | TGI [µM] | GI50 [µM] |
| --- | --- | --- |
| COCCCNc1nc(N)c(C#N)c(C#N)c1C#N | > 10 | – |
| CC1CCCCNC1=S (configuration not stated) | > 10 | – |
| CCOC(=O)c1ccc(N[C@@H]2c3cc4c(cc3C(c3cc(OC)c(O)c(OC)c3)[C@H]3C(=O)OCC32)OCO4)cc1O (some centres not stated) | > 25.9 | – |
| CC1CC2=C(S(=O)(=O)c3ccccc3)CC(S(=O)(=O)c3ccccc3)(S(=O)(=O)c3ccccc3)CC21 (configuration not stated) | > 100 | – |
| CCC(C)NC1=NCC(C)S1 (configuration not stated) | > 100 | – |
| Clc1ccc(C[P+](c2ccccc2)(c2ccccc2)c2ccccc2)c(Cl)c1 | 13 | – |
| COc1ccccc1CNCCCN1C(=O)c2ccc3c4c(ccc(c24)C1=O)C(=O)N(CCCNCCNCCCN)C3=O | 11.8 | 2.18 |
| NNC(=O)c1c(SCc2ccccc2)nc2c3ccccc3ccn12 | > 100 | – |
| COc1cc2oc(-c3ccc(O)cc3)c(OC)c(=O)c2c(O)c1OC | > 100 | > 100 |
| C[C@@H]1Nc2cc(NC(=O)OCCF)nc(N)c2N=C1c1ccccc1 | – | < 0.0001 |

These molecules were tested on NCI-H460 lung (assay: DTP human tumour cell line panel, 48 h).

| Compound | TGI [µM] | GI50 [µM] |
| --- | --- | --- |
| COCCCNc1nc(N)c(C#N)c(C#N)c1C#N | > 10 | – |
| CC1CCCCNC1=S (configuration not stated) | > 10 | – |
| CCOC(=O)c1ccc(N[C@@H]2c3cc4c(cc3C(c3cc(OC)c(O)c(OC)c3)[C@H]3C(=O)OCC32)OCO4)cc1O (some centres not stated) | 0.822 | – |
| CC1CC2=C(S(=O)(=O)c3ccccc3)CC(S(=O)(=O)c3ccccc3)(S(=O)(=O)c3ccccc3)CC21 (configuration not stated) | > 100 | – |
| CCC(C)NC1=NCC(C)S1 (configuration not stated) | > 100 | – |
| Clc1ccc(C[P+](c2ccccc2)(c2ccccc2)c2ccccc2)c(Cl)c1 | 11.8 | – |
| COc1ccccc1CNCCCN1C(=O)c2ccc3c4c(ccc(c24)C1=O)C(=O)N(CCCNCCNCCCN)C3=O | 6.47 | 2.08 |
| NNC(=O)c1c(SCc2ccccc2)nc2c3ccccc3ccn12 | 28 | – |
| COc1cc2oc(-c3ccc(O)cc3)c(OC)c(=O)c2c(O)c1OC | > 100 | 41.1 |

What follows are molecules tested on SF-295 CNS (assay: DTP human tumour cell line panel, 48 h).

| Compound | TGI [µM] | GI50 [µM] |
| --- | --- | --- |
| COCCCNc1nc(N)c(C#N)c(C#N)c1C#N | > 10 | – |
| CC1CCCCNC1=S (configuration not stated) | > 10 | – |
| CCOC(=O)c1ccc(N[C@@H]2c3cc4c(cc3C(c3cc(OC)c(O)c(OC)c3)[C@H]3C(=O)OCC32)OCO4)cc1O (some centres not stated) | 2.96 | – |
| CC1CC2=C(S(=O)(=O)c3ccccc3)CC(S(=O)(=O)c3ccccc3)(S(=O)(=O)c3ccccc3)CC21 (configuration not stated) | > 100 | – |
| CCC(C)NC1=NCC(C)S1 (configuration not stated) | > 100 | – |
| Clc1ccc(C[P+](c2ccccc2)(c2ccccc2)c2ccccc2)c(Cl)c1 | 12.3 | – |
| COc1ccccc1CNCCCN1C(=O)c2ccc3c4c(ccc(c24)C1=O)C(=O)N(CCCNCCNCCCN)C3=O | 12.6 | 2.77 |
| NNC(=O)c1c(SCc2ccccc2)nc2c3ccccc3ccn12 | > 100 | – |
| COc1cc2oc(-c3ccc(O)cc3)c(OC)c(=O)c2c(O)c1OC | > 100 | 36.1 |
| C[C@@H]1Nc2cc(NC(=O)OCCF)nc(N)c2N=C1c1ccccc1 | 20.1 | – |

These molecules were tested on NCI-H522 lung (assay: DTP human tumour cell line panel, 48 h).

| Compound | TGI [µM] | GI50 [µM] |
| --- | --- | --- |
| COCCCNc1nc(N)c(C#N)c(C#N)c1C#N | > 10 | – |
| CCOC(=O)c1ccc(N[C@@H]2c3cc4c(cc3C(c3cc(OC)c(O)c(OC)c3)[C@H]3C(=O)OCC32)OCO4)cc1O (some centres not stated) | 2.07 | – |
| CCC(C)NC1=NCC(C)S1 (configuration not stated) | > 100 | – |
| Clc1ccc(C[P+](c2ccccc2)(c2ccccc2)c2ccccc2)c(Cl)c1 | 7.18 | – |
| COc1ccccc1CNCCCN1C(=O)c2ccc3c4c(ccc(c24)C1=O)C(=O)N(CCCNCCNCCCN)C3=O | 3.71 | 1.22 |
| NNC(=O)c1c(SCc2ccccc2)nc2c3ccccc3ccn12 | 37.3 | – |
| COc1cc2oc(-c3ccc(O)cc3)c(OC)c(=O)c2c(O)c1OC | > 100 | 45.2 |
| C[C@@H]1Nc2cc(NC(=O)OCCF)nc(N)c2N=C1c1ccccc1 | 0.509 | – |

Each molecule was assayed on NCI/ADR-RES ovarian (assay: DTP human tumour cell line panel, 48 h).

| Compound | TGI [µM] | GI50 [µM] |
| --- | --- | --- |
| COCCCNc1nc(N)c(C#N)c(C#N)c1C#N | > 10 | – |
| CCOC(=O)c1ccc(N[C@@H]2c3cc4c(cc3C(c3cc(OC)c(O)c(OC)c3)[C@H]3C(=O)OCC32)OCO4)cc1O (some centres not stated) | 99.3 | – |
| COc1ccccc1CNCCCN1C(=O)c2ccc3c4c(ccc(c24)C1=O)C(=O)N(CCCNCCNCCCN)C3=O | > 100 | 23.1 |
| NNC(=O)c1c(SCc2ccccc2)nc2c3ccccc3ccn12 | > 100 | – |
| COc1cc2oc(-c3ccc(O)cc3)c(OC)c(=O)c2c(O)c1OC | > 100 | 30.9 |
| C[C@@H]1Nc2cc(NC(=O)OCCF)nc(N)c2N=C1c1ccccc1 | < 0.0001 | – |

The molecules below were run on LOX IMVI melanoma (assay: DTP human tumour cell line panel, 48 h).

| Compound | TGI [µM] | GI50 [µM] |
| --- | --- | --- |
| COCCCNc1nc(N)c(C#N)c(C#N)c1C#N | > 10 | – |
| CC1CCCCNC1=S (configuration not stated) | > 10 | – |
| CCOC(=O)c1ccc(N[C@@H]2c3cc4c(cc3C(c3cc(OC)c(O)c(OC)c3)[C@H]3C(=O)OCC32)OCO4)cc1O (some centres not stated) | 0.442 | – |
| CC1CC2=C(S(=O)(=O)c3ccccc3)CC(S(=O)(=O)c3ccccc3)(S(=O)(=O)c3ccccc3)CC21 (configuration not stated) | > 100 | – |
| CCC(C)NC1=NCC(C)S1 (configuration not stated) | > 100 | – |
| Clc1ccc(C[P+](c2ccccc2)(c2ccccc2)c2ccccc2)c(Cl)c1 | 12.9 | – |
| COc1ccccc1CNCCCN1C(=O)c2ccc3c4c(ccc(c24)C1=O)C(=O)N(CCCNCCNCCCN)C3=O | 10.4 | 2.1 |

These molecules were tested on HCC-2998 colon (assay: DTP human tumour cell line panel, 48 h).

| Compound | TGI [µM] | GI50 [µM] |
| --- | --- | --- |
| COCCCNc1nc(N)c(C#N)c(C#N)c1C#N | > 10 | – |
| CCOC(=O)c1ccc(N[C@@H]2c3cc4c(cc3C(c3cc(OC)c(O)c(OC)c3)[C@H]3C(=O)OCC32)OCO4)cc1O (some centres not stated) | 3.97 | – |
| CC1CC2=C(S(=O)(=O)c3ccccc3)CC(S(=O)(=O)c3ccccc3)(S(=O)(=O)c3ccccc3)CC21 (configuration not stated) | > 100 | – |
| CCC(C)NC1=NCC(C)S1 (configuration not stated) | > 100 | – |
| Clc1ccc(C[P+](c2ccccc2)(c2ccccc2)c2ccccc2)c(Cl)c1 | 15.1 | – |
| COc1ccccc1CNCCCN1C(=O)c2ccc3c4c(ccc(c24)C1=O)C(=O)N(CCCNCCNCCCN)C3=O | 10.3 | 2.25 |
| NNC(=O)c1c(SCc2ccccc2)nc2c3ccccc3ccn12 | > 100 | – |
| COc1cc2oc(-c3ccc(O)cc3)c(OC)c(=O)c2c(O)c1OC | 72.8 | 18.8 |

These molecules were tested on PC-3 prostate (assay: DTP human tumour cell line panel, 48 h).

| Compound | TGI [µM] | GI50 [µM] |
| --- | --- | --- |
| COCCCNc1nc(N)c(C#N)c(C#N)c1C#N | > 10 | – |
| CC1CCCCNC1=S (configuration not stated) | > 10 | – |
| CCC(C)NC1=NCC(C)S1 (configuration not stated) | > 100 | – |
| COc1ccccc1CNCCCN1C(=O)c2ccc3c4c(ccc(c24)C1=O)C(=O)N(CCCNCCNCCCN)C3=O | 80.2 | 5.91 |
| NNC(=O)c1c(SCc2ccccc2)nc2c3ccccc3ccn12 | > 100 | – |
| COc1cc2oc(-c3ccc(O)cc3)c(OC)c(=O)c2c(O)c1OC | > 100 | 40.6 |
| C[C@@H]1Nc2cc(NC(=O)OCCF)nc(N)c2N=C1c1ccccc1 | > 100 | – |
